For two compounds, hemolysis and MIC results are on record in ChEMBL document CHEMBL4196049, “β,γ-diamino acids as building blocks for new analogues of Gramicidin S: Synthesis and biological activity” (Eur J Med Chem, 2018).

≈ marks a conversion by molar mass, not a printed value. Non-standard residues stand in square brackets, D forms with d. Residues, ends and D or L forms follow the SMILES beside them. Orn = NCCC[C@H](N)C(=O)O

A short description of series [1]: Hemolytic activity in human erythrocytes at 100 ug/ml after 30 mins relative to control. It is filed as ADME, cell-based, Erythrocyte. The settings on record: read-out: Activity.
Series [2] is described as follows: Hemolytic activity in human erythrocytes at 50 ug/ml after 30 mins relative to control. The series is classed as ADME, cell-based, Erythrocyte. Particulars: read-out: Activity.
For another series, the system named is Enterococcus faecium. Put plainly: Antibacterial activity against Enterococcus faecium CIP 103014 after 48 hrs by two-fold serial dilution method. It is filed as functional. Particulars: CIP 103014, 48 h.
The test system of series [3] is Enterococcus faecalis. Put plainly: Antibacterial activity against Enterococcus faecalis CIP 103214 after 48 hrs by two-fold serial dilution method. It is filed as functional. Particulars: CIP 103214, 48 h.
The next series deals with Pseudomonas aeruginosa. Put plainly: Antibacterial activity against Pseudomonas aeruginosa CIP 82.118 ATCC 9027 after 48 hrs by two-fold serial dilution method. It is filed as functional. The settings on record: CIP 82.118 ATCC 9027, 48 h.
In a further series the test system is Staphylococcus aureus. In words: Antibacterial activity against Staphylococcus aureus subsp. aureus CIP 4.83 ATCC 6538 after 48 hrs by two-fold serial dilution method. It is filed as functional. The settings on record: CIP 4.83 ATCC 6538, 48 h.
The next series has as its system Escherichia coli. In words: Antibacterial activity against Escherichia coli CIP 53.126 ATCC 8739 after 48 hrs by two-fold serial dilution method. It is filed as functional. Particulars: ATCC 8739 = CIP 53.126, 48 h.
The next series relates to Bacillus cereus. Put plainly: Antibacterial activity against Bacillus cereus CIP 66.24 after 48 hrs by two-fold serial dilution method. It is filed as functional. Particulars: CIP 66.24, 48 h.
The test system of the next series is Streptococcus salivarius. In words: Antibacterial activity against Streptococcus salivarius CIP 102503 after 48 hrs by two-fold serial dilution method. It is filed as functional. The settings on record: CIP 102503, 48 h.
The subject of series [4] is Enterococcus faecalis. In words: Antibacterial activity against Enterococcus faecalis CIP 103015 after 48 hrs by two-fold serial dilution method. The series is classed as functional. The settings on record: CIP 103015, 48 h.
Another series deals with Bacillus subtilis. Put plainly: Antibacterial activity against Bacillus subtilis subsp. subtilis CIP 52.65 after 48 hrs by two-fold serial dilution method. It is filed as functional. Particulars: CIP 52.65, 48 h.

For `CC(C)C[C@@H]1NC(=O)[C@H](CCCN)NC(=O)[C@H](C(C)C)NC(=O)[C@@H]2CCCN2C(=O)[C@@H](Cc2ccccc2)NC(=O)[C@H](CC(C)C)NC(=O)[C@H](CCCN)NC(=O)[C@H](C(C)C)NC(=O)[C@@H]2CCCN2C(=O)[C@@H](Cc2ccccc2)NC1=O` (cyclo(L[dF]PV[Orn]L[dF]PV[Orn])), the hemolysis at 0.5 h, 100 ug/ml in [1] was determined as 83%. In addition, the hemolysis at 0.5 h, 50 ug/ml in series [2] was 74%.

A word on the MIC: it is the lowest concentration found to suppress growth. A lower MIC goes with inhibition by little substance. Consider `CC(C)C[C@@H]1NC(=O)[C@H](CCCN)NC(=O)[C@H](C(C)C)NC(=O)[C@@H]2CCCN2C(=O)[C@@H](Cc2ccccc2)NC(=O)[C@H](CC(C)C)NC(=O)[C@H](CCCN)NC(=O)[C@H](C(C)C)NC(=O)[C@@H]2CCCN2C(=O)[C@@H](Cc2ccccc2)NC1=O` (cyclo(V[Orn]L[dF]PV[Orn]L[dF]P)), for which the minimal inhibitory concentration (MIC) in the series on Enterococcus faecium is 3.12 µg/mL (≈ 2.74 µM); against Enterococcus faecalis [3], 3.12 µg/mL (≈ 2.74 µM); with Pseudomonas aeruginosa, ≥ 100 µg/mL; against Staphylococcus aureus, 3.12 µg/mL (≈ 2.74 µM); in the series on Escherichia coli it was 12.5 µg/mL (≈ 11 µM); in the series with Bacillus cereus, 6.25 µg/mL (≈ 5.48 µM). Besides, the MIC with Streptococcus salivarius, in the series with Enterococcus faecalis [4] and with Bacillus subtilis was 3.12 µg/mL (≈ 2.74 µM) in each case.
